According to patent US4200628A, “Novel aminoglycoside derivatives” (Shionogi & Co., Ltd., priority 1977, dated 1980):
≈ marks a conversion by molar mass, not a printed value. Read-outs that look alike come from different tables or passages of the source.

Key:
Experiment in all cases: MIC, antimicrobial activity
[1] = test system: Klebsiella pneumoniae Kl-38; conditions: for Minimum Inhibitory Concentration (MIC): Klebsiella pneumoniae Kl-38; for MIC: Klebsiella pneumoniae
[2] = test system: Proteus rettgeri Ret 40; conditions: for Minimum Inhibitory Concentration (MIC): Proteus rettgeri Ret 40; for MIC: Providencia rettgeri, RET40, read-out: Minimum Inhibitory Concentration (MIC), Proteus rettgeri Ret 40
[3] = test system: Staphylococcus aureus FDAJC; conditions: for MIC: Staphylococcus aureus, read-out: Minimum Inhibitory Concentration (MIC), Staphylococcus aureus FDAJC; for Minimum Inhibitory Concentration (MIC): Staphylococcus aureus FDAJC
[4] = test system: Proteus mirabilis TB-617; type: cell-based; conditions: for Minimum Inhibitory Concentration (MIC): Proteus mirabilis TB-617; for MIC: Proteus mirabilis, TB617, Proteus mirabilis TB-617, read-out: Minimum Inhibitory Concentration (MIC)
[5] = test system: Escherichia coli W-677/JR-762; conditions: for Minimum Inhibitory Concentration (MIC): Escherichia coli W-677/JR-762, tobramycin resistant strain; for MIC: Escherichia coli, W677/JR762, read-out: Minimum Inhibitory Concentration (MIC), Escherichia coli W-677/JR-762, tobramycin resistant strain
[6] = test system: Enterobacter cloacae TB-718; type: cell-based; conditions: for Minimum Inhibitory Concentration (MIC): Enterobacter cloacae TB-718; for MIC: Enterobacter cloacae, TB718, Enterobacter cloacae TB-718, read-out: Minimum Inhibitory Concentration (MIC)
[7] = test system: Pseudomonas aeruginosa PP-6; conditions: for MIC: Pseudomonas aeruginosa; for Minimum Inhibitory Concentration (MIC): Pseudomonas aeruginosa PP-6, tobramycin resistant strain
[8] = test system: Proteus inconstans In-27; type: cell-based; conditions: for MIC: Providencia alcalifaciens, IN27, read-out: Minimum Inhibitory Concentration (MIC), Proteus inconstans In-27, tobramycin resistant strain; for Minimum Inhibitory Concentration (MIC): Proteus inconstans In-27, tobramycin resistant strain
[9] = test system: Escherichia coli NIHJ JC-2; conditions: for Minimum Inhibitory Concentration (MIC): Escherichia coli NIHJ JC-2; for MIC: Escherichia coli
[10] = test system: Serratia marcescens ATCC 13880; conditions: for MIC: Serratia marcescens
[11] = test system: Pseudomonas aeruginosa Ps-24; conditions: for Minimum Inhibitory Concentration (MIC): Pseudomonas aeruginosa Ps-24; for MIC: Pseudomonas aeruginosa
[12] = PP6, read-out: Minimum Inhibitory Concentration (MIC), Pseudomonas aeruginosa PP-6, tobramycin resistant strain
[13] = ATCC13880, read-out: Minimum Inhibitory Concentration (MIC)
[14] = ATCC13880, read-out: Minimum Inhibitory Concentration (MIC), Serratia marcescens ATCC 13880
[15] = KL38, read-out: Minimum Inhibitory Concentration (MIC), Klebsiella pneumoniae Kl-38
[16] = PP6, read-out: Minimum Inhibitory Concentration (MIC)
[17] = NIHJJC2, read-out: Minimum Inhibitory Concentration (MIC), Escherichia coli NIHJ JC-2
[18] = PS24, read-out: Minimum Inhibitory Concentration (MIC), Pseudomonas aeruginosa Ps-24
[19] = NIHJJC2, read-out: Minimum Inhibitory Concentration (MIC)
[20] = KL38, read-out: Minimum Inhibitory Concentration (MIC)

Structure (SMILES)	Minimum Inhibitory Concentration (MIC) [1] [µg/mL]	Minimum Inhibitory Concentration (MIC) [2] [µg/mL]	MIC [3] [µg/mL]	Minimum Inhibitory Concentration (MIC) [4] [µg/mL]	Minimum Inhibitory Concentration (MIC) [5] [µg/mL]	Minimum Inhibitory Concentration (MIC) [6] [µg/mL]	MIC [7, 12] [µg/mL]	MIC [8] [µg/mL]	Minimum Inhibitory Concentration (MIC) [9] [µg/mL]	MIC [10, 13] [µg/mL]	Minimum Inhibitory Concentration (MIC) [11] [µg/mL]	Minimum Inhibitory Concentration (MIC) [3] [µg/mL]	MIC [10, 14] [µg/mL]	MIC [1, 15] [µg/mL]	MIC [2] [µg/mL]	MIC [4] [µg/mL]	MIC [5] [µg/mL]	MIC [6] [µg/mL]	MIC [9, 17] [µg/mL]	MIC [11, 18] [µg/mL]	further results
NC[C@H]1O[C@H](O[C@H]2[C@H](O)[C@@H](O[C@H]3O[C@H](CO)[C@@H](O)[C@H](N)[C@H]3O)[C@H](NC(=O)C(O)C3CNCCN3)C[C@@H]2N)[C@H](N)C[C@@H]1O (single isomer, unassigned) [(8), 1-N-[2-hydroxy-2-(piperazin-2-yl)acetyl]tobramycin]	0.8	0.8	0.1 (≈ 0.164 µM)	1.6	3.1	0.8	12.5 (≈ 20.5 µM)	100 (≈ 164 µM)	1.6	25 (≈ 41 µM)	0.8										
NC[C@H]1O[C@H](O[C@H]2[C@H](O)[C@@H](O[C@H]3O[C@H](CO)[C@@H](O)[C@H](N)[C@H]3O)[C@H](NC(=O)C(O)C3CNCCN3)C[C@@H]2N)[C@H](N)C[C@@H]1O (single isomer, unassigned) [(9), 1-N-[2-hydroxy-2-(piperazin-2-yl)acetyl]tobramycin]	6.2	3.1		6.2	25.0	12.5			25.0		3.1	0.1	100 (≈ 164 µM)								Minimum Inhibitory Concentration (MIC) [7]: 25.0 µg/mL; Minimum Inhibitory Concentration (MIC) [8]: > 100.0 µg/mL
NC[C@H]1O[C@H](O[C@H]2[C@H](O)[C@@H](O[C@H]3O[C@H](CO)[C@@H](O)[C@H](N)[C@H]3O)[C@H](NC(=O)C(O)C3CCNC3)C[C@@H]2N)[C@H](N)C[C@@H]1O (stereo partly shown) [(1), 1-N-[2-hydroxy-2-(pyrrolidin-3-yl)acetyl]tobramycin]			0.1 (≈ 0.168 µM)					100 (≈ 168 µM)					12.5 (≈ 21 µM)	0.8 (≈ 1.35 µM)	0.8 (≈ 1.35 µM)	3.1 (≈ 5.21 µM)	6.2 (≈ 10.4 µM)	1.6 (≈ 2.69 µM)	1.6 (≈ 2.69 µM)	1.6 (≈ 2.69 µM)	MIC [7, 16]: 3.1 µg/mL (≈ 5.21 µM)
NC[C@H]1O[C@H](O[C@H]2[C@H](O)[C@@H](O[C@H]3O[C@H](CO)[C@@H](O)[C@H](N)[C@H]3O)[C@H](NC(=O)C(O)C3CCN3)C[C@@H]2N)[C@H](N)C[C@@H]1O (stereo partly shown) [(2), 1-N-[2-hydroxy-2-(azetidin-2-yl)acetyl]tobramycin]			0.1 (≈ 0.172 µM)				12.5 (≈ 21.5 µM)	> 100		50 (≈ 86.1 µM)				1.6 (≈ 2.76 µM)	0.8 (≈ 1.38 µM)	3.1 (≈ 5.34 µM)	6.2 (≈ 10.7 µM)	3.1 (≈ 5.34 µM)	6.2 (≈ 10.7 µM)	1.6 (≈ 2.76 µM)	
NC[C@H]1O[C@H](O[C@H]2[C@H](O)[C@@H](O[C@H]3O[C@H](CO)[C@@H](O)[C@H](N)[C@H]3O)[C@H](NC(=O)C(O)C3CNC3)C[C@@H]2N)[C@H](N)C[C@@H]1O (stereo partly shown) [(3), 1-N-[2-hydroxy-2-(azetidin-3-yl)acetyl]tobramycin]			0.1 (≈ 0.172 µM)					50 (≈ 86.1 µM)		6.2 (≈ 10.7 µM)				0.4 (≈ 0.689 µM)	0.4 (≈ 0.689 µM)	0.8 (≈ 1.38 µM)	1.6 (≈ 2.76 µM)	0.4 (≈ 0.689 µM)	0.4 (≈ 0.689 µM)	0.4 (≈ 0.689 µM)	MIC [7, 16]: 1.6 µg/mL (≈ 2.76 µM)
NC[C@H]1O[C@H](O[C@H]2[C@H](O)[C@@H](O[C@H]3O[C@H](CO)[C@@H](O)[C@H](N)[C@H]3O)[C@H](NC(=O)C(O)C3CCCNC3)C[C@@H]2N)[C@H](N)C[C@@H]1O (stereo partly shown) [(4), 1-N-[2-hydroxy-2-(piperidin-3-yl)acetyl]tobramycin]			0.1 (≈ 0.164 µM)				25 (≈ 41.1 µM)	> 100		25 (≈ 41.1 µM)				1.6 (≈ 2.63 µM)	1.6 (≈ 2.63 µM)	3.1 (≈ 5.09 µM)	> 100	1.6 (≈ 2.63 µM)	1.6 (≈ 2.63 µM)	12.5 (≈ 20.5 µM)	
NC[C@H]1O[C@H](O[C@H]2[C@H](O)[C@@H](O[C@H]3O[C@H](CO)[C@@H](O)[C@H](N)[C@H]3O)[C@H](NC(=O)C(O)C3CCCN3)C[C@@H]2N)[C@H](N)C[C@@H]1O (stereo partly shown) [(5), 1-N-[2-hydroxy-2-(pyrrolidin-2-yl)acetyl]tobramycin]	6.2	3.1		6.2	25.0	6.2	25 (≈ 42 µM)	> 100			6.2	0.1	100 (≈ 168 µM)								MIC [9, 19]: 12.5 µg/mL (≈ 21 µM)
NC[C@H]1O[C@H](O[C@H]2[C@H](O)[C@@H](O[C@H]3O[C@H](CO)[C@@H](O)[C@H](N)[C@H]3O)[C@H](NC(=O)C(O)C3CCCN3)C[C@@H]2N)[C@H](N)C[C@@H]1O (stereo partly shown) [(6), 1-N-[2-hydroxy-2-(pyrrolidin-2-yl)acetyl]tobramycin]	0.8	0.2		0.8	3.1	0.8			0.8	25 (≈ 42 µM)	1.6	0.1									MIC [7, 16]: 6.2 µg/mL (≈ 10.4 µM); Minimum Inhibitory Concentration (MIC) [8]: > 100.0 µg/mL
NC[C@H]1O[C@H](O[C@H]2[C@H](O)[C@@H](O[C@H]3O[C@H](CO)[C@@H](O)[C@H](N)[C@H]3O)[C@H](NC(=O)C(O)C3CCCN3)C[C@@H]2N)[C@H](N)C[C@@H]1O (stereo partly shown) [(7), 1-N-[2-hydroxy-2-(pyrrolidin-2-yl)acetyl]tobramycin]		6.2		12.5	100.0	25.0			50.0			0.4									MIC [1, 20]: 12.5 µg/mL (≈ 21 µM); Minimum Inhibitory Concentration (MIC) [7]: 50.0 µg/mL; Minimum Inhibitory Concentration (MIC) [8]: > 100.0 µg/mL; Minimum Inhibitory Concentration (MIC) ([10]; Serratia marcescens ATCC 13880): > 100.0 µg/mL; MIC ([11]; PS24, read-out: Minimum Inhibitory Concentration (MIC)): 12.5 µg/mL (≈ 21 µM)
NC[C@H]1O[C@H](O[C@H]2[C@H](O)[C@@H](O[C@H]3O[C@H](CO)[C@@H](O)[C@H](N)[C@H]3O)[C@H](N)C[C@@H]2N)[C@H](N)C[C@@H]1O [TOB, tobramycin, reference compound]			0.05 (≈ 0.107 µM)				50 (≈ 107 µM)						3.13 (≈ 6.69 µM)		0.39 (≈ 0.834 µM)					0.39 (≈ 0.834 µM)	MIC [1, 20]: 3.13 µg/mL (≈ 6.69 µM); MIC [9, 19]: 0.78 µg/mL (≈ 1.67 µM)
